Experimental data from ChEMBL document CHEMBL3046147, “Synthesis and Herbicidal Activity of 1-Arylalkyl-3-pyrrolin-2-one Derivatives” (J Pestic Sci, 2000).

How the values were obtained:
[1] = test system: Sagittaria pygmaea; assay: Herbicide activity against Sagittaria pygmaea under greenhouse condition compound treated at 0.5 leaf-stage measured after 14 to 20 days; assay type: functional
[2] = test system: Echinochloa oryzicola; assay: Pre-emergence herbicide activity against Echinochloa oryzicola under greenhouse condition measured after 14 to 20 days; assay type: functional
[3] = test system: Oryza sativa; assay: Phytotoxicity against two-leaf stage Oryza sativa cv. Nihonbare (rice) planted 3 cm depth measured after […]; assay type: organism-based; conditions: in vivo
[4] = test system: Schoenoplectiella juncoides; assay: Herbicide activity against Schoenoplectiella juncoides under greenhouse condition compound treated at emergence-stage measured after 14 to 20 days; assay type: functional
[5] = test system: Oryza sativa; assay: Phytotoxicity against two-leaf stage Oryza sativa cv. Nihonbare (rice) planted 1 cm depth measured after […]; assay type: organism-based; conditions: in vivo
[6] = test system: Echinochloa oryzicola; assay: Herbicide activity against Echinochloa oryzicola under greenhouse condition compound treated at 2 leaf-stage measured after 14 to 20 days; assay type: functional

## CC1=C(c2ccccc2)C(=O)N(C(C)(C)c2nc3cc(C#N)ccc3s2)C1
[1]
  MED: 40 g/acre
[2]
  MED: 5 g/acre
[3]
  MTD: 10 g/acre
[4]
  MED: 20 g/acre
[5]
  MTD: 40 g/acre
[6]
  MED: <5 g/acre

## CC1=C(c2ccccc2)C(=O)N(C(C)(C)c2nc3cccnc3s2)C1
[1]
  MED: 5 g/acre
[2]
  MED: 0.313 g/acre
[3]
  MTD: 0.313 g/acre
[4]
  MED: 2.5 g/acre
[5]
  MTD: > 0.313 g/acre
[6]
  MED: 2.5 g/acre

## CC1=C(/C=C/c2ccccc2)C(=O)N(C(C)(C)c2nc3ccccc3s2)C1
[1]
  MED: 80 g/acre
[2]
  MED: 160 g/acre
[3]
  MTD: 80 g/acre
[4]
  MED: 80 g/acre
[5]
  MTD: 80 g/acre
[6]
  MED: <5 g/acre

## CC1=C(c2ccccc2O)C(=O)N(C(C)(C)c2nc3ccccc3s2)C1
[1]
  MED: 80 g/acre
[2]
  MED: 10 g/acre
[3]
  MTD: 5 g/acre
[4]
  MED: 2.5 g/acre
[5]
  MTD: 20 g/acre
[6]
  MED: <5 g/acre

## COc1ccc(C2=C(C)CN(C(C)(C)c3nc4ccccc4s3)C2=O)cc1OC
[1]
  MED: 160 g/acre
[2]
  MED: 160 g/acre
[3]
  MTD: 80 g/acre
[4]
  MED: 160 g/acre
[5]
  MTD: 80 g/acre
[6]
  MED: <5 g/acre
